1 compound from patent US10894067B2, “Genome stability enhancer” (Yamada Bee Company, Inc., priority 2017, dated 2021) can be followed below.

The test system of the test is H2AX expression in MEF (mouse embryo fibroblast) cells. Put plainly: Western analysis of H2AX expression in MEF cells (Test Examples 1-3). Type of test: cell-based.

Method: MEF (mouse embryo fibroblast) cells were cultured at 37° C. in 5% CO2 by the 3T3 method in a 10% FCS (fetal calf serum)-containing DMEM medium to which a 25 μg/ml enzymatically treated RJ or non-treated RJ was added. The cells that were cultured for 0, 3, 6, 12, and 24 hours were harvested, and Western analysis was performed using a H2AX antibody (Bethyl Laboratories, Inc.) and a β-actin antibody (AC-74, Sigma-Aldrich Co. LLC.).
In the same manner as in Test Example 1, the effects of melinjo and trans-resveratrol on H2AX expression were analyzed. In this test example, a 0.26, 0.52, 1.0, or 2.1 w/v % melinjo seed extract or trans-resveratrol was added to a medium, and cells were cultured for 1 hour and harvested.

For the compound `Oc1ccc(/C=C/c2cc(O)cc(O)c2)cc1` [trans-resveratrol], the “Induced transient H2AX expression” value is, setting by setting: (Test Example 2, 0.26, 0.52, 1.0 or 2.1 w/v % in medium, cultured 1 hour, FIG. 2) “Induced transient H2AX expression was observed”; (Test Example 3, 2.5 μM (0.52 μg/ml) trans-resveratrol, 0.52 μg/ml melinjo seed extract, 2.5 μM gnetin C, 0-24 hours, FIG. 3) “Induced transient H2AX expression was observed”.
